Data as given in ChEMBL document CHEMBL1201862, “PubChem BioAssay data set” (2004).
One block for each compound: values may come before it. Active and inactive are the calls of the source.

Columns and labels:
Format in all cases: functional
[1] = target: Fibroblast growth factor receptor 1 (Homo sapiens, UniProt P11362)
[2] = target: Receptor-type tyrosine-protein kinase FLT3 (Homo sapiens, UniProt P36888);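 further: FLT3 was tested as one member of a kinome-wide kinase panel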
[3] = target: Dual specificity protein kinase CLK4 (Homo sapiens, UniProt Q9HAZ1)
Sequence of Dual specificity protein kinase CLK4 (Q9HAZ1 whole entry): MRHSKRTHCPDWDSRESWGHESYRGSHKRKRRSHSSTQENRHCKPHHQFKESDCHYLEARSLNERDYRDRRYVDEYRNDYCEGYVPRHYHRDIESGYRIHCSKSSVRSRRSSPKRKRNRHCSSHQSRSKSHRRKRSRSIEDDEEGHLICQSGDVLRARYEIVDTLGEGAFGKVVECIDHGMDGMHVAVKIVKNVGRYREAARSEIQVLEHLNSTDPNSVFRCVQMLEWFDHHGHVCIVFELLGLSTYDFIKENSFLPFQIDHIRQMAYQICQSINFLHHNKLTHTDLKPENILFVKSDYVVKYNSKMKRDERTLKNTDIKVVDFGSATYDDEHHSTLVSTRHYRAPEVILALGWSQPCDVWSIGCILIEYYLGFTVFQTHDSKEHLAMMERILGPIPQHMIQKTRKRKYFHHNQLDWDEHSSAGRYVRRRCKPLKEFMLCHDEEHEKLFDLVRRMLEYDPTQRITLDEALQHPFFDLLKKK

[4] = target: Cyclin-dependent kinase 8 (Homo sapiens, UniProt P49336); assay: Navigating the Kinome. Panel member name: CDK8
Sequence of Cyclin-dependent kinase 8 (P49336 whole entry): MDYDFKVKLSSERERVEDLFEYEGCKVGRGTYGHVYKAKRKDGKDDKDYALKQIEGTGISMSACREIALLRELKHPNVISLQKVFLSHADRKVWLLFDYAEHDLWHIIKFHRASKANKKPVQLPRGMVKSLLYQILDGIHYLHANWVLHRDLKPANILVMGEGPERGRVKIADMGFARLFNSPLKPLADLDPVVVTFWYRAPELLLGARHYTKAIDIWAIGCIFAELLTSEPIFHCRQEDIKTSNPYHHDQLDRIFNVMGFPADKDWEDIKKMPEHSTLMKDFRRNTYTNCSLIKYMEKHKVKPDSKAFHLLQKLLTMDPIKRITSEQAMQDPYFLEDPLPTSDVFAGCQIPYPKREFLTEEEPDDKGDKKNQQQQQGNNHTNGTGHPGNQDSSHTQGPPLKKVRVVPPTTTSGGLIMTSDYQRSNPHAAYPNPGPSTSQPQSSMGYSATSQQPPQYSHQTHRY

[5] = target: Cyclin-dependent kinase 19 (Homo sapiens, UniProt Q9BWU1); assay: Navigating the Kinome. Panel member name: CDC2L6
[6] = target: ALK tyrosine kinase receptor (Homo sapiens, UniProt Q9UM73);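 further: ALK tested as one member of a kinase panel screen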
[7] = target: Vascular endothelial growth factor receptor 2 (Homo sapiens, UniProt P35968)
[8] = target: RAC-gamma serine/threonine-protein kinase (Homo sapiens, UniProt Q9Y243)
[9] = target: Serine/threonine-protein kinase pim-1 (Homo sapiens, UniProt P11309)
[10] = target: RAC-alpha serine/threonine-protein kinase (Homo sapiens, UniProt P31749);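 further: AKT1 affinity measured as one member of a kinome-wide kinase profiling panel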
[11] = target: Serine/threonine-protein kinase PLK1 (Homo sapiens, UniProt P53350);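 further: PLK1 measured as one member of a kinome-wide profiling panel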
[12] = target: Serine/threonine-protein kinase PLK3 (Homo sapiens, UniProt Q9H4B4)
Insulin receptor = Insulin receptor (Homo sapiens, UniProt P06213);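 further: insulin receptor kinase tested as one member of a kinome-wide kinase panel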
[13] = target: Serine/threonine-protein kinase PLK4 (Homo sapiens, UniProt O00444);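 further: PLK4 measured as one member of a kinome-wide kinase profiling panel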
[14] = target: Serine/threonine-protein kinase pim-3 (Homo sapiens, UniProt Q86V86);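 further: value obtained as one member of a broad kinase panel profiling effort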
[15] = target: Serine/threonine-protein kinase Chk1 (Homo sapiens, UniProt O14757);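 further: measured as one member of a kinome-wide kinase profiling panel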
[16] = target: Hepatocyte growth factor receptor (Homo sapiens, UniProt P08581);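 further: kinase panel profiling across the kinome, with MET as the panel member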
Sequence of Hepatocyte growth factor receptor (P08581 whole entry): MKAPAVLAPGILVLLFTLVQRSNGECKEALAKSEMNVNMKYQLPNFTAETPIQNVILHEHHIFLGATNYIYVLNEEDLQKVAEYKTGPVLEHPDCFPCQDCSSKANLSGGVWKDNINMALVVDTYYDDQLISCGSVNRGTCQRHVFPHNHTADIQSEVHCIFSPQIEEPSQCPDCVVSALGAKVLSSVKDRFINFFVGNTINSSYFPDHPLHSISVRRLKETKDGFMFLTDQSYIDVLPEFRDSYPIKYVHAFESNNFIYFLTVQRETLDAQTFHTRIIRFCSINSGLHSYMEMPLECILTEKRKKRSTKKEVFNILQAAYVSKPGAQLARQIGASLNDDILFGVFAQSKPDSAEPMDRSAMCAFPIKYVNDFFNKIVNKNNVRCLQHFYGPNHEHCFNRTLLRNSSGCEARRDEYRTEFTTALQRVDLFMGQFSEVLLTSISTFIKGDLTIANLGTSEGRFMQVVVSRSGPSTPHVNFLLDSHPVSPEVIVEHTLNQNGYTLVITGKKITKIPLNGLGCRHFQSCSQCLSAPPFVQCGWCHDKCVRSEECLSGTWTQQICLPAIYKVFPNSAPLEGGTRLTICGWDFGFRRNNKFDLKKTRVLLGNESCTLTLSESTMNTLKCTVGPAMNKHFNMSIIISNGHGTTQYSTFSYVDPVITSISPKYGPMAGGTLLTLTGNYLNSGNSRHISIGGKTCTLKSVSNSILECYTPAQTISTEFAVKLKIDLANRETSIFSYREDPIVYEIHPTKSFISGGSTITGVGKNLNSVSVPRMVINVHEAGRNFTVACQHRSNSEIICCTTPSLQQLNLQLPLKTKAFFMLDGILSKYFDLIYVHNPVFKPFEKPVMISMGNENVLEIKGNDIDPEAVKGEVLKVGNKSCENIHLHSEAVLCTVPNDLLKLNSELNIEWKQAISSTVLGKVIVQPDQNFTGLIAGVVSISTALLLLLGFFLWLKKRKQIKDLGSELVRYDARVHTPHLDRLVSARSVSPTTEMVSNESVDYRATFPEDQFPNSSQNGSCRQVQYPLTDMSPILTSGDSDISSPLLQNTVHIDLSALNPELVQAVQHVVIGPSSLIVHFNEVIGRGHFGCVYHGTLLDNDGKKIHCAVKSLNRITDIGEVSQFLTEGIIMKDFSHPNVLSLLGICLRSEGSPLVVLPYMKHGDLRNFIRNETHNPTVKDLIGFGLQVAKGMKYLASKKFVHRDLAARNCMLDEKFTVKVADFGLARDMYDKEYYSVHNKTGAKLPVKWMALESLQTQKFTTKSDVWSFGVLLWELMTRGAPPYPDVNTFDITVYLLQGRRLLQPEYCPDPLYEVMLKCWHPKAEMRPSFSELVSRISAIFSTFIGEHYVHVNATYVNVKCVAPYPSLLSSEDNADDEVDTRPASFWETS

[17] = target: High affinity nerve growth factor receptor (Homo sapiens, UniProt P04629);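 further: NTRK1 tested as one member of a kinome-wide profiling panel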
[18] = target: BDNF/NT-3 growth factors receptor (Homo sapiens, UniProt Q16620);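 further: NTRK2 measured as one member of a broad kinome-wide kinase profiling panel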
Orexin receptor type 2 [19] = target: T1, Orexin receptor type 2 (Homo sapiens, UniProt O43614); assay: Counterscreen assay for antagonists of the orexin 1 receptor (OX1R; HCRTR1): Fluorescence-based cell-based dose response assay for antagonists of the orexin 2 receptor (OX2R; HCRTR2), run by assay provider.
T1 sequence (O43614 whole entry): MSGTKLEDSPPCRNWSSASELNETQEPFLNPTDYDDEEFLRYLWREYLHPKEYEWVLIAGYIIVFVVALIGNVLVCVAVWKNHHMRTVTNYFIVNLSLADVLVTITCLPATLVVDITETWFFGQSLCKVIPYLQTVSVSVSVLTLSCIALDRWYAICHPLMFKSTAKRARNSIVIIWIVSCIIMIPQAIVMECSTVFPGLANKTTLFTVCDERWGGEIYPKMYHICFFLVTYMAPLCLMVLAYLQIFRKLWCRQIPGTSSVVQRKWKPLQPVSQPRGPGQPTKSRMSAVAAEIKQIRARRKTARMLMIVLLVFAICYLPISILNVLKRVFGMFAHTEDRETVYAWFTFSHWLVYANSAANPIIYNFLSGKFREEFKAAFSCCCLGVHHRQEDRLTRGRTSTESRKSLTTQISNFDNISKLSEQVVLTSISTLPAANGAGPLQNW

Orexin receptor type 2 [20] = target: T1, Orexin receptor type 2; assay: Counterscreen assay for antagonists of the orexin 1 receptor (OX1R; HCRTR1): Homogeneous Time Resolved Fluorescence (HTRF)-based cell-based dose response assay for antagonists of the orexin 2 receptor (OX2R; HCRTR2), run by assay provider.
[21] = (§1) Counterscreen for antagonists of the orexin 1 receptor (OX1R; HCRTR1): Fluorescence-based cell-based high throughput dose response assay to identify antagonists of the parental CHO cell line. [Related pubchem assays (depositor defined):AID434989, AID435008, AID463079, AID485270, AID492963, AID492964, AID492965, AID493232, AID504699, AID504701]
[22] = target: T2, Orexin/Hypocretin receptor type 1 (Homo sapiens, UniProt O43613); assay: Homogeneous Time Resolved Fluorescence (HTRF)-based cell-based high throughput dose response assay for antagonists of the orexin 1 receptor (OX1R; HCRTR1). [Related pubchem assays (depositor defined):AID434989, AID435008, AID463079, AID485270, AID492963, AID492964, AID492965, AID493232, AID504717, AID504718]
T2 sequence (O43613 whole entry): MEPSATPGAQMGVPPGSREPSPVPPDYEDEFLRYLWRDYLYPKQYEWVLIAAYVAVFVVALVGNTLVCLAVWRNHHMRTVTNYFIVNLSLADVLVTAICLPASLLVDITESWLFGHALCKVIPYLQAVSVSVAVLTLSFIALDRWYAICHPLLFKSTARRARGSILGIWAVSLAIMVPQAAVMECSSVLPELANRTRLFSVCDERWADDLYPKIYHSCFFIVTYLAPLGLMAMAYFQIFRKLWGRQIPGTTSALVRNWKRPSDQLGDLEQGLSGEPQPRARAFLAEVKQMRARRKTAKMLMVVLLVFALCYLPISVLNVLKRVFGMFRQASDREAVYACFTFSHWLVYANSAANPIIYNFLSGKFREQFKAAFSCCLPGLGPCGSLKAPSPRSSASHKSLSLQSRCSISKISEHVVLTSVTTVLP

[23] = target: T2, Orexin/Hypocretin receptor type 1; assay: Fluorescence-based cell-based high throughput dose response assay for antagonists of the orexin 1 receptor (OX1R; HCRTR1). [Related pubchem assays (depositor defined):AID434989, AID435008, AID463079, AID485270, AID492963, AID492964, AID492965, AID493232, AID504717, AID504718]
CHO-K1 = assay: as §1, with “Homogeneous time resolved fluorescence (HTRF)-based” for “Fluorescence-based”, “cell-based” for “cell-based high throughput”, “CHO-K1” for “CHO”; details: Cricetulus griseus;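 further: potency for inhibition of ATP-stimulated IP1 production as antagonists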
[24] = target: Leucine-rich repeat serine/threonine-protein kinase 2 (Homo sapiens, UniProt Q5S007);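 further: value from a broad kinome-wide panel profiling study in which LRRK2 was one of the kinases tested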
[25] = target: Vascular endothelial growth factor receptor 1 (Homo sapiens, UniProt P17948);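 further: measured within a kinome-wide profiling panel, FLT1 as the panel member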
[26] = target: Mitogen-activated protein kinase 13 (Homo sapiens, UniProt O15264)
[27] = target: T3, High affinity choline transporter 1 (Homo sapiens, UniProt Q9GZV3); assay: human choline transporter blockers, potency – cell-based, 5-point CRC, membrane potential dye, dose response (AID 504840)
T3 sequence (Q9GZV3 whole entry): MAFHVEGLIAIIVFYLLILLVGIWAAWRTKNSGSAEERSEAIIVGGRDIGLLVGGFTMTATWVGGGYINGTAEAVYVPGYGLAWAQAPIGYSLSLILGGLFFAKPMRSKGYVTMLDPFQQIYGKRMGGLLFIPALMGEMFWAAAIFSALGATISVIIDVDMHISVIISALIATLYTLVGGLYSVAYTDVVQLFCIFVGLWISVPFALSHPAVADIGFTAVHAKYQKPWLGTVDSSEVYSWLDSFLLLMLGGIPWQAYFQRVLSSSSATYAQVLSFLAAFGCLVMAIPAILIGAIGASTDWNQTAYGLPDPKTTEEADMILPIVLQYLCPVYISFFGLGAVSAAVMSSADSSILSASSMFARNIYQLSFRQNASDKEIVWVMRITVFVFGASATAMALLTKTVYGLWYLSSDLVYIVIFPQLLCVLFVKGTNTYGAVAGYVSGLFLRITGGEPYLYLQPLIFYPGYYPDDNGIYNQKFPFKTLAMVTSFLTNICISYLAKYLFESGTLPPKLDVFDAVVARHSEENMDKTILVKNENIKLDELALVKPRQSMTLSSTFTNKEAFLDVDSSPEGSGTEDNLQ

[28] = target: T3, High affinity choline transporter 1; assay: human choline transporter blockers, potency – cell-based, 10-point CRC, membrane potential dye, dose response (AID 588401);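 further: membrane potential dye fluorescence of choline-evoked depolarization via CHT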

Sequence of Fibroblast growth factor receptor 1 (P11362 whole entry): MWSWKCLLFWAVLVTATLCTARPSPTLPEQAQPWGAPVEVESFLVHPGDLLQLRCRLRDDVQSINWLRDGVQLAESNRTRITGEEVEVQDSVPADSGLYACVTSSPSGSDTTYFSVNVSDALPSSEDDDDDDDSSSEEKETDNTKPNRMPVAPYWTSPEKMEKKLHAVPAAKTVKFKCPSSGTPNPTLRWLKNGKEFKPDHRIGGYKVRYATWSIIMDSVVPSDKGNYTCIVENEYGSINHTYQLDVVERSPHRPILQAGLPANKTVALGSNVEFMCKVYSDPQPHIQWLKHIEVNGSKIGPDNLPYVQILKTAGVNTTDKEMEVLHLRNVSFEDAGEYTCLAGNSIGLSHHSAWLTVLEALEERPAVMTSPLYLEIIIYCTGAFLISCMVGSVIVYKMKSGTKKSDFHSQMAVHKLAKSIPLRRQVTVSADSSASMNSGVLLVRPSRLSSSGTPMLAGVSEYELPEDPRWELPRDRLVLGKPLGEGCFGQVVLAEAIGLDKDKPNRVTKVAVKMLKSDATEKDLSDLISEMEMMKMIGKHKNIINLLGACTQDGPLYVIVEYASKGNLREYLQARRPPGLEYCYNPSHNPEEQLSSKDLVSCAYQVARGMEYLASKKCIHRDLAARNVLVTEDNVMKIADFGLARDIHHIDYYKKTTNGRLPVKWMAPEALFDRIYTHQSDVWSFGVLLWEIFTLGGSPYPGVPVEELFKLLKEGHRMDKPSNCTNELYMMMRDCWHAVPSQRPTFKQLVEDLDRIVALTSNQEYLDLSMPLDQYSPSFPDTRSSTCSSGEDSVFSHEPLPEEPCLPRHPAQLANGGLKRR
Sequence of Receptor-type tyrosine-protein kinase FLT3 (P36888 whole entry): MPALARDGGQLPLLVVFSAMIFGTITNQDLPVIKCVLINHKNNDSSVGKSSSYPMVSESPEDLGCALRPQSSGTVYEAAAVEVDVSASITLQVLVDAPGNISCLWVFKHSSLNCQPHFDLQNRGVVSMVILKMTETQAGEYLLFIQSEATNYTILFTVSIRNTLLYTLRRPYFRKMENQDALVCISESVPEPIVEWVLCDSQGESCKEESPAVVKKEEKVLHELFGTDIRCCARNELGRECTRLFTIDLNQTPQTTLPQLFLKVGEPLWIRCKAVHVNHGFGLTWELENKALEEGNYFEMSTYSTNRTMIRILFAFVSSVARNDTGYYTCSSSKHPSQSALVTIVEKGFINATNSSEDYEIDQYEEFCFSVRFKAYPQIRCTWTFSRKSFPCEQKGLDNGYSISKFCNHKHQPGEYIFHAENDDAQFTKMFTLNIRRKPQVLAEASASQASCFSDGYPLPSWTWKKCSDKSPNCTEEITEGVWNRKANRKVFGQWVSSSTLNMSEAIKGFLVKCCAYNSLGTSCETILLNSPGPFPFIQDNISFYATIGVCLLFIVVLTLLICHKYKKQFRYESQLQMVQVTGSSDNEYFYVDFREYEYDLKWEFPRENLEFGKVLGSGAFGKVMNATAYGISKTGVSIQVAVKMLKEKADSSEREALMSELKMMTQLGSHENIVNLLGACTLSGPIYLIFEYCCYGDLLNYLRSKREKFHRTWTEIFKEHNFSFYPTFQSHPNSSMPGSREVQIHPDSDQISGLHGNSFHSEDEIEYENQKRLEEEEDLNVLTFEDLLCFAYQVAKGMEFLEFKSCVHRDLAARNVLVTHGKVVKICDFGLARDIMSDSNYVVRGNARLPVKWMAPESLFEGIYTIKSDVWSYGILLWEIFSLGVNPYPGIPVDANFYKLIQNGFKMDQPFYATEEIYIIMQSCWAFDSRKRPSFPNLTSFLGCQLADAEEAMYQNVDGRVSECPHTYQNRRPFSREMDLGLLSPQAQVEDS

SMILES: O=C(O)C1CN(Cc2ccc(CCc3cccc(C(F)(F)F)c3)cc2)C1
- Ki [4]: 3.16 µM (active)

SMILES: COc1ccc(COc2ccc(Cc3cnc(N)nc3N)cc2OC)cc1 [GW632580X]
- Ki [17]: 1.58 µM (active)
- Ki [18]: 0.158 µM (active)

SMILES: Sc1nnc(-c2cc(-c3ccccc3)[nH]n2)n1/N=C/c1cccs1
- IC50 (Orexin receptor type 2 [19]): > 88.8 µM (inactive)
- IC50 (Orexin receptor type 2 [20]): > 50 µM (inactive)
- IC50 [21]: > 49.7 µM (inactive)
- IC50 [22]: 8.08 µM (active)
- IC50 [23]: > 49.7 µM (inactive)
- IC50 (CHO-K1): > 66.2 µM (inactive)

SMILES: COc1ccc(CNC(=O)c2sc3nc(C)cc(C)c3c2N)cc1
- Ki [24]: 1 µM (active)
- Ki [25]: 3.16 µM (active)

SMILES: CS(=O)(=O)Nc1cc2c(cc1Cl)NC(=O)Nc1cnc(C#N)c(n1)OCCCCCO2
- Ki [26]: > 7.94 µM (inactive)

SMILES: Cc1ccc(C)[n+](CC(=O)c2ccc(-c3ccccc3)cc2)c1
- IC50 [27]: 10.3 µM (active)
- IC50 [28]: 10.8 µM (active)

More lines, now with the values ahead:

- Ki [1]: 3.16 µM (active)
- Ki [2]: 2.51 µM (active)
- Ki [3]: 1.26 µM (active)
SMILES: CC(C)(C)c1ccc2nc(-c3n[nH]c4ccc(Br)cc34)[nH]c2c1

- Ki [5]: 1 µM (active)
- Ki [6]: 0.0631 µM (active)
SMILES: Cn1cc(Nc2ncc(Br)c(Nc3ccccc3Cl)n2)cn1

- Ki [7]: > 79.4 µM (inactive)
- Ki [8]: > 100 µM (inactive)
- Ki [9]: > 100 µM (inactive)
- Ki [10]: > 79.4 µM (inactive)
- Ki [11]: > 79.4 µM (inactive)
- Ki [12]: 10 µM (active)
- Ki [1]: > 50.1 µM (inactive)
- Ki [2]: 2.51 µM (active)
- Ki (Insulin receptor): > 50.1 µM (inactive)
- Ki [13]: > 39.8 µM (inactive)
- Ki [14]: > 79.4 µM (inactive)
- Ki [15]: 25.1 µM (active)
- Ki [16]: > 31.6 µM (inactive)
SMILES: Nc1n[nH]c2c(Cl)cccc12
